Measurements from patent US20010027216A1, “Method for preventing hormone induced adverse effects” (priority 2000, published 2001).
“Also recorded” adds a separate entry of the source.

What was measured:
Assay type in all cases: cell-based, human
[1] = test system: MDA-231 mammary cancer cells; experiment: MDA-231 cell proliferation, [3H]thymidine incorporation
Method: (§1) Cells were cultured in DMEM containing penicillin (100 U/ml), streptomycin (0.1 mg/ml)) nystatin (12.5 (g/ml), insulin (0.6 (g/ml), and 10% FCS. Cells were stripped of endogenous steroids according to the procedure of Vignon et al. (1987, Biochem. Biophys. Res. Comm., 146:1502-8) by successive passages in medium without phenol red containing 10% and then 3% of charcoal-stripped FCS. Cells were seeded into 96 multiwell plates (5,000 cells per well) in DMEM containing 3% of charcoal-stripped FCS. After one day the medium was changed to one containing the solubilized carotenoid or THF alone. The medium was changed daily to ensure a continuous supply of carotenoid.
(§2) After incubation, the number of cells and the rate of cell proliferation were estimated by the incorporation of [^3H]thymidine incorporation into cellular DNA, as described in U.S. Pat. No. 5,827,900. Cell growth was also measured by direct cell counting with a Coulter counter after trypsinization and dilution in Isotone-II (Coulter Electronics, Luton, England). A good correlation was found between the two methods.
Thus genistein not only stimulates hormone-dependent cancer cell proliferation, but IGF-I as well as other growth factors further augment this effect.

[2] = test system: ECC-1 endometrial cancer cells; experiment: ECC-1 cell proliferation, [3H]thymidine incorporation into DNA; conditions: for cell proliferation rate (cpm): concentration range 0.01 to 4 μM (FIG. 1 panel A); for effect on endometrial cancer cell growth over increasing concentrations: three days
Method: Cells were cultured in DMEM containing penicillin (100 U/ml), streptomycin (0.1 mg/ml)) nystatin (12.5 (g/ml), insulin (0.6 (g/ml), and 10% FCS. Cells were stripped of endogenous steroids according to the procedure of Vignon et al. (1987, Biochem. Biophys. Res. Comm., 146:1502-8) by successive passages in medium without phenol red containing 10% and then 3% of charcoal-stripped FCS. Cells were seeded into 96 multiwell plates (5,000 cells per well) in DMEM containing 3% of charcoal-stripped FCS. After one day the medium was changed to one containing the solubilized carotenoid or THF alone. The medium was changed daily to ensure a continuous supply of carotenoid. After incubation, the number of cells and the rate of cell proliferation were estimated by the incorporation of [^3H]thymidine incorporation into cellular DNA, as described in U.S. Pat. No. 5,827,900. Cell growth was also measured by direct cell counting with a Coulter counter after trypsinization and dilution in Isotone-II (Coulter Electronics, Luton, England). A good correlation was found between the two methods. ECC-1 cells were incubated with increasing concentrations of the isoflavones genistein and daidzein, the two primary isoflavones in soy products, and with soy extract. Cell proliferation after three days was measured by [^3H]thymidine incorporation into DNA (FIG. 1, panel A). […] ECC-1 cells were also incubated with a single high concentration (40 μM) of each of genistein, daidzein and soy extract. Cell proliferation was assayed daily over the course of three days.

[3] = test system: MCF-7 mammary cancer cells; experiment: MCF-7 cell proliferation, [3H]thymidine incorporation; conditions: for phytoestrogen-induced cell proliferation: genistein 4 μM
Method: as §1, §2
The comparative effects of estradiol and genistein supplementation on the proliferation of the hormone-dependent cell lines MCF-7 mammary cancer and ECC-1 endometrial cancer were examined (FIG. 2).
MCF-7 mammary cancer cells were stimulated by genistein (4 μM) and test cultures were additionally supplemented with lycopene or phytoene or a combination of both, at either physiological concentrations (FIG. 6, panel A) or at about one order of magnitude greater than the physiological concentrations (FIG. 6, panel B).

[4] = lycopene 3 to 5 μM, IGF-1 30 nM
[5] = lycopene 3 to 5 μM, three days in culture
[6] = stimulated by estradiol at 10 nM (FIG. 4)
[7] = stimulated by genistein at 1 μM (FIG. 4)
[8] = high, non-physiological concentrations of the individual carotenoids (FIG. 6, panel B)
[9] = 40 μM, after one day of incubation (FIG. 1, panel B)
[10] = 0.4 and 4 μM, after three days (FIG. 1, panel A)

CC(C)=CCC/C(C)=C/C=C/C(C)=C/C=C/C(C)=C/C=C/C=C(C)/C=C/C=C(C)/C=C/C=C(\C)CCC=C(C)C [lycopene]
IGF stimulation of cell growth [1, 4]: inhibits IGF stimulation | cell proliferation compared with controls [1, 4]: reduced to levels less than that of controls | estradiol-induced cell proliferation ([2]; estradiol 10 nM, various concentrations of lycopene, lowest 0.9 μM (FIG. 5)): all lycopene concentrations tested were effective in inhibiting | genistein-induced cell proliferation ([2]; genistein 1 μM, various concentrations of lycopene, lowest 0.9 μM (FIG. 5)): all lycopene concentrations tested were effective in inhibiting | basal growth [2, 5]: significantly inhibited | estrogen-induced (either genistein or estradiol) growth [2, 5]: substantially inhibited; also recorded: significantly inhibited | estradiol-induced cell proliferation [2, 6]: effectively inhibited | genistein-induced cell proliferation [2, 7]: effective inhibitors; also recorded: effectively inhibited | phytoestrogen-induced cell proliferation [3, 8]: effective in significantly inhibiting | phytoestrogen-induced cell proliferation ([3]; low (physiological) concentration: lycopene 0.4 μM, mixture of phytoene and phytofluene 6 μM (FIG. 6, panel A)): do not significantly affect | IGF stimulation of cell growth [3, 4]: inhibits IGF stimulation | basal growth [3, 5]: significantly inhibited | estrogen-induced (either genistein or estradiol) growth [3, 5]: substantially inhibited; also recorded: significantly inhibited

IGF-1: Human recombinant IGF-1 purchased from GroPep
cell growth ([1]; IGF-1 30 nM (FIG. 3, panel B)): significantly stimulates cell growth | cell growth ([3]; IGF-1 30 nM (FIG. 3, panel A)): significantly stimulates cell growth

CC1=C(/C=C/C(C)=C/C=C/C(C)=C/C=C/C=C(C)/C=C/C=C(C)/C=C/C2=C(C)C(=O)[C@@H](O)CC2(C)C)C(C)(C)C[C@H](O)C1=O [astaxanthin]
estradiol-induced cell proliferation [2, 6]: effectively inhibited | genistein-induced cell proliferation [2, 7]: effective inhibitors; also recorded: effectively inhibited

CC1=C(/C=C/C(C)=C/C=C/C(C)=C/C=C/C=C(C)/C=C/C=C(C)/C=C/C2=C(C)CCCC2(C)C)C(C)(C)CCC1 [beta-carotene]
estradiol-induced cell proliferation [2, 6]: effectively inhibited | genistein-induced cell proliferation [2, 7]: effective inhibitors; also recorded: effectively inhibited

O=c1c(-c2ccc(O)cc2)coc2cc(O)ccc12 [daidzein, reference compound]
cell proliferation [2, 9]: significantly increases cell proliferation; also recorded: stimulated cell proliferation | cell proliferation [2, 10]: stimulated cell proliferation | cell proliferation rate (cpm) [2]: significant increase in cell proliferation rate | effect on endometrial cancer cell growth over increasing concentrations [2]: only stimulatory

CC(C)=CCC/C(C)=C/CC/C(C)=C/CC/C(C)=C/C=C/C=C(\C)CC/C=C(\C)CC/C=C(\C)CCC=C(C)C [phytoene]
genistein-induced cell proliferation [2, 7]: effective inhibitors | phytoestrogen-induced cell proliferation [3, 8]: effective in significantly inhibiting

O=c1c(-c2ccc(O)cc2)coc2cc(O)cc(O)c12 [genistein, reference compound]
stimulation of cell growth by genistein ([1]; FIG. 3, panel B): not by genistein | cell proliferation [2, 9]: significantly increases cell proliferation; also recorded: stimulated cell proliferation | cell proliferation ([2]; 40 μM, second day in culture (FIG. 1, panel B)): inhibitory effects | cell proliferation [2, 10]: stimulated cell proliferation | cell proliferation rate (cpm) [2]: significant increase in cell proliferation rate | cell proliferation ([2]; higher, non-physiological concentrations (10 μM), after three days in culture (FIG. 1, panel A)): inhibited cell proliferation | effect on endometrial cancer cell growth over increasing concentrations [2]: biphasic effects on proliferation, stimulating at low concentrations and inhibiting at high concentrations | effect on proliferation over increasing concentrations ([3]; increasing concentrations (FIG. 2, panel A)): biphasic effects on proliferation, stimulating at low concentrations and inhibiting at high concentrations | stimulatory effect of genistein in the presence of IGF-I ([3]; with IGF-1 30 nM (FIG. 3, panel A)): further augmented
